Data on 22 compounds can be found in patent US20230002361A1, “2H-INDAZOLE DERIVATIVES AND THEIR USE IN THE TREATMENT OF DISEASE” (BIOGEN MA INC., priority 2019, published 2023).

Data set [1] has as its target T1, IRAK4 (Homo sapiens, UniProt Q9NWZ3).
T1 construct: with 0.1 nM IRAK4, 1.6 μM of biotinylated peptide substrate and 10 μM ATP
T1 sequence (Q9NWZ3 1-460): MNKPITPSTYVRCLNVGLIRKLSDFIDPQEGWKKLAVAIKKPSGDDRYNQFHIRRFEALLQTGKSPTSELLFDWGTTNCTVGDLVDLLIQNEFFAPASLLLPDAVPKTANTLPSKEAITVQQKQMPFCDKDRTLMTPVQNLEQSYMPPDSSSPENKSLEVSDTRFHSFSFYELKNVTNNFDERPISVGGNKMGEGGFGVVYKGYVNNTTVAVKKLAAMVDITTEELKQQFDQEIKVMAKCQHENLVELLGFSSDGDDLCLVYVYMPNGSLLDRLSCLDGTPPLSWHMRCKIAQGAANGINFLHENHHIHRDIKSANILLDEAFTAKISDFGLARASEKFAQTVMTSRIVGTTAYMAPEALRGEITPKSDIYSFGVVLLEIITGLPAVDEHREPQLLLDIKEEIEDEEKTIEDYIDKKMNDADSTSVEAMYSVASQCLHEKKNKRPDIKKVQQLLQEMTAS
The experiment in a line: IRAK4 MSD Biochemical Assay (1 mM ATP, 2 h). The conditions noted are these: room temperature. As to the method:
The 2-hour 10 μM ATP Biochemical Assay employs a MesoScale Detection (MSD) format.
The activity is quenched with 11 μl of 70 mM EDTA, pH 8.
To detect the phosphorylated biotinylated peptide substrate, 30 μl of the quenched reaction mixture is added to equivalent wells of a 384 well streptavidin coated MesoScale plate (Meso Scale Discovery #L21SA-1). After a 1 hour incubation of the plate for 1 hour at room temperature with gentle mixing, the plate wells are washed 3 times with 50 mM Tris, pH 7.5, 150 mM NaCl, 0.02% Tween-20.
A 25 μl volume of 1:500 anti-P-Threonine Rabbit polyclonal Antibody plus 1:500 Goat-anti-Rabbit Sulfo Tag Antibody (Meso Scale Discovery R32AB-1) in 50 mM Tris, pH 7.5, 150 mM NaCl, 0.02% Tween-20 plus 2% BSA is then added to each well. After a 1-hour incubation of the plate for 1 hour at room temperature with gentle mixing, the plate wells are washed, 3 times with 50 mM Tris, pH 7.5, 150 mM NaCl, 0.02% Tween-20. A 40 μl volume of 2×MSD Read Buffer (Meso Scale Discovery R92TC-1) is added to each well, and the plate is read immediately in an MSD Plate Reader (Meso Scale Discovery).
The 2-hour 1 mM ATP IRAK4 Biochemical assay was performed as described above, but with […] IRAK4 and 1 mM ATP.

Data set [2] concerns the target T2, MDR1 (P-gp) (Homo sapiens, UniProt P08183).
T2 construct: host or cells: MDCK cells
Description: MDR1-MDCK assay (efflux ratio). Type of data set: in vitro ADME. As to conditions: human, MDCK-MDR1, 1 μM compound, 120 minutes incubation; read-out: MDR1-MDCK Efflux Ratio; (B-A/A-B). How it is done:
• The assay makes use of human MDR1 transfected MDCK cells (NIH cell line in-licensed from Absorption Systems) • The compounds are tested at 1 μM concentration prepared in transport buffer (Hank's balanced salt solution with HEPES) • MDR1-MDCK cell are cultured for 7 days in 96 well transwell insert plates (Corning). Insert plates are washed before the assay and TEER (Trans epithelial electric resistance) is measured. • These plates are loaded with test compound solution 85 μL for A-B transport and 260 μL for B-A transport in the respective donor compartment.
Mass balance=100×((Vr×Cr^final)+(Vd×Cd^final))/(Vd×CE) • Where: • dCr/dt is the cumulative concentration in the receiver compartment versus time in μM s^−1 • Vr is the volume of the receiver compartment in cm^3 • Vd is the volume of the donor compartment in cm^3 • A is the area of the insert (0.143 cm^2 for 96-well insert) • CE is the estimated experimental concentration (Time=0) of the dosing solution • Cr^final is the concentration of the receiver at the end of the incubation period • Cd^final is the concentration of the donor at the end of the incubation period.

The mark [3] stands for this setting: read-out: IRAK4 MSD Biochemical Assay (1 mM ATP, 2 h) IC50.
Where [4] appears, read: IRAK4 MSD Biochemical Assay (1 mM ATP, 2 h) IC50 (nM).

The structures appear in SMILES notation. Where a name gives a salt, the structure may show the parent alone. Read-outs that look alike come from different tables or passages of the source.

T2 sequence (P08183 whole entry): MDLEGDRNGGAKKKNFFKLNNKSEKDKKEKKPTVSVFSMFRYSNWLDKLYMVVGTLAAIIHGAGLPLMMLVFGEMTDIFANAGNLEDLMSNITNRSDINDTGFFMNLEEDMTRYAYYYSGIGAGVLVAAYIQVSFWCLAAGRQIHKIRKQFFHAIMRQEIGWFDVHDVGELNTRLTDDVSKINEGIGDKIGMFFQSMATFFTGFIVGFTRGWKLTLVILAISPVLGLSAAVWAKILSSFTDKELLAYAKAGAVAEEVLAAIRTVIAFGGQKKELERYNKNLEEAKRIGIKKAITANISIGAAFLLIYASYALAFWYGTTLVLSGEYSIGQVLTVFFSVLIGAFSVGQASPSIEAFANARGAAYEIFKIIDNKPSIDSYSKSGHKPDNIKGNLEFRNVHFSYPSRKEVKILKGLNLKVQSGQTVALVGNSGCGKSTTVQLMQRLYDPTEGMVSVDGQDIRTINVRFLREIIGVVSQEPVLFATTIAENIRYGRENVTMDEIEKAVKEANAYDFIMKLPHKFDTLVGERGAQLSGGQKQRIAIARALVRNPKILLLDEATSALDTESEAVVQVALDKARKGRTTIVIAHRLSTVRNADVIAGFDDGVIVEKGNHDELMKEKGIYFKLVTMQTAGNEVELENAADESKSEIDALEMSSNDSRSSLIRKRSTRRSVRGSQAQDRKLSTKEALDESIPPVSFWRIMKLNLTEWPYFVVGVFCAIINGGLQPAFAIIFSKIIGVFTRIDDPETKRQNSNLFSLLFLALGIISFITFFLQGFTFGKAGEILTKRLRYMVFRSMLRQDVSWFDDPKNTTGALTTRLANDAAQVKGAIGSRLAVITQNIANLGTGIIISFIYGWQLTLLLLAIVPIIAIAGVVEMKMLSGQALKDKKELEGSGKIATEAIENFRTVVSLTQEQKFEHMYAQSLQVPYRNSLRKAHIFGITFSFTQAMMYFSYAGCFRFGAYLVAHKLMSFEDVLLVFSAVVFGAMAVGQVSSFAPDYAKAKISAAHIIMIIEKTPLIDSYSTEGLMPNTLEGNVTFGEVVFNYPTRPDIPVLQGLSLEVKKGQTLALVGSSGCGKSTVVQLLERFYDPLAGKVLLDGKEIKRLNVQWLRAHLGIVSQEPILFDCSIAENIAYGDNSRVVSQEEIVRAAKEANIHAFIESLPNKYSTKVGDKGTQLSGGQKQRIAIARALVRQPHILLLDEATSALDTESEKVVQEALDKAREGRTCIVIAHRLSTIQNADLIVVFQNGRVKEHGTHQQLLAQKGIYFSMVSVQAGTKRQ

In the case of `COc1cccc(NC(=O)c2cc3cn(C4CCOCC4)nc3cc2OC(C)C)n1` [Example 66, 6-Isopropoxy-N-(6-methoxypyridin-2-yl)-2-(tetrahydro-2H-pyran-4-yl)-2H-indazole-5-carboxamide], in data set [1] (setting [3]), the IC50 is 1.4 nM. Further, the efflux ratio at 120 min, 1 μM in data set [2] stood at 0.9.
In the same order, the values of `Cc1cnc2c(NC(=O)c3cc4cn(C[C@H]5CCOC5)nc4nc3OC3CCC3)cnn2c1` (single isomer, unassigned) [Example 122] are 0.4 nM and 4.2.
Taken in the same sequence, the figures for `CC(C)Oc1cc2nn(C34COC(C)(C3)C4)cc2cc1C(=O)Nc1cnn2cc(F)cnc12` [Example 96, N-(6-fluoropyrazolo[1,5-a]pyrimidine-3-yl)-6-isopropoxy-2-(1-methyl-2-oxabicyclo[2.1.1]hexan-4-yl)-2H-indazole-5-carboxamide trifluoroacetate] were 1.4 nM and 1.6.
In the same order, the values of `CC(C)Oc1nc2nn(C[C@H]3CCOC3)cc2cc1C(=O)Nc1cccc2ccnn12` (single isomer, unassigned) [Example 53] are 1.5 nM and 1.
On to `COc1cccc(NC(=O)c2cc(C)c3nn(CC4CCOC4)cc3c2)n1.O=C(O)C(F)(F)F` (centres unmarked) [Example 9, N-(6-methoxypyridin-2-yl)-7-methyl-2-((tetrahydrofuran-3-yl)methyl)-2H-indazole-5-carboxamide Trifluoroacetate], for which, in data set [1] (setting [3]), the IC50 is 2740 nM. Besides, in data set [2], the efflux ratio at 120 min, 1 μM came to 0.5.
Taken in the same sequence, the figures for `COc1cc2nn(CC3CCOC3)cc2cc1C(=O)Nc1ccccn1.O=C(O)C(F)(F)F` (centres unmarked) [Example 2, 6-Methoxy-N-(pyridin-2-yl)-2-((tetrahydrofuran-3-yl)methyl)-2H-indazole-5-carboxamide trifluoroacetate] were 373 nM and 1.7.
Taken in the same sequence, the figures for `Cn1ccc(NC(=O)c2cc3cn(C4CCCOC4)nc3nc2OC2CCC2)n1` (single isomer, unassigned) [Example 129] were 5.7 nM and 3.4.
As for `CC(C)Oc1nc2nn(C3CCOCC3)cc2cc1C(=O)Nc1cccc(C(F)F)n1` [Example 63, N-(6-(difluoromethyl)pyridin-2-yl)-6-isopropoxy-2-(tetrahydro-2H-pyran-4-yl)-2H-pyrazolo[3,4-b]pyridine-5-carboxamide], the IC50 in data set [1] (setting [3]) was 0.3 nM. In data set [2], the efflux ratio at 120 min, 1 μM amounted to 1.
As for `CC(C)Oc1cc2nn(C34CCC(C)(C3)OC4)cc2cc1C(=O)Nc1ccn(C)n1` (centres unmarked) [Example 101, 6-Isopropoxy-N-(1-methyl-1H-pyrazol-3-yl)-2-(1-methyl-2-oxabicyclo[2.2.1]heptan-4-yl)-2H-indazole-5-carboxamide], in data set [1] (setting [3]), the IC50 was 4.1 nM. Besides, the efflux ratio at 120 min, 1 μM in data set [2] was found to be 1.5.
With `CC(C)Oc1cc2nn(C34COC(C)(C3)C4)cc2cc1C(=O)Nc1cccn(C(F)F)c1=O` [Example 91, N-(1-(difluoromethyl)-2-oxo-1,2-dihydropyridin-3-yl)-6-isopropoxy-2-(1-methyl-2-oxabicyclo[2.1.]hexan-4-yl)-2H-indazole-5-carboxamide tfifluoroacetate], half-maximal inhibition in data set [1] (setting [4]) (IC50) required 0.3 nM. For the same compound, the efflux ratio at 120 min, 1 μM in data set [2] was 0.8.
For `CC(C)Oc1cc2nn(CCC(C)(C)O)cc2cc1C(=O)Nc1cccc(C(F)F)n1` [Example 13, N-(6-(difluoromethyl)pyridin-2-yl)-2-(3-hydroxy-3-methylbutyl)-6-isopropoxy-2H-indazole-5-carboxamide], the IC50 in data set [1] (setting [3]) amounted to 0.4 nM. In addition, the efflux ratio at 120 min, 1 μM in data set [2] is 1.7.
In the same order, the values of `CC(C)Oc1nc2nn(C[C@H]3CCOC3)cc2cc1C(=O)Nc1ccn(C(F)F)n1` (single isomer, unassigned) [Example 110] are 2.8 nM and 2.2.
As to `Cc1cnc2c(NC(=O)c3cc4cn(C56COC(C)(C5)C6)nc4cc3OC3CCC3)cnn2c1` [Example 56, 6-Cyclobutoxy-2-(1-methyl-2-oxabicyclo[2.1.1]hexan-4-yl)-N-(6-methylpyrazolo[1,5-a]pyrimidin-3-yl)-2H-indazole-5-carboxamide Trifluoroacetate], the IC50 in data set [1] (setting [3]) is 0.5 nM. For the same compound, in data set [2], the efflux ratio at 120 min, 1 μM came out at 2.
With `Cl.O=C(Nc1cccc(C(F)F)n1)c1cc2cn(C3CCOCC3)nc2cc1OCC1CC(F)(F)C1` [Example 49, 6-((3,3-Difluorocyclobutyl)methoxy)-N-(6-(difluoromethyl)pyridin-2-yl)-2-(tetrahydro-2H-pyran-4-yl)-2H-indazole-5-carboxamide Hydrochloride], the IC50 in data set [1] (setting [3]) is 2 nM. The efflux ratio at 120 min, 1 μM in data set [2] amounted to 1.4.
In the same order, the values of `COc1cccc(NC(=O)c2cc(OC)c3nn(CCC(C)(C)O)cc3c2)n1.Cl` [Example 14, 2-(3-Hydroxy-3-methylbutyl)-7-methoxy-N-(6-methoxypyridin-2-yl)-2H-indazole-5-carboxamide hydrochloride] are 247 nM and 24.4.
Turning to `Cc1cnc2c(NC(=O)c3cc4cn(C[C@@H]5CCOC5)nc4nc3OC3CCC3)cnn2c1` (single isomer, unassigned) [Example 123], the IC50 in data set [1] (setting [3]) turned out to be 0.5 nM. In data set [2], the efflux ratio at 120 min, 1 μM worked out at 5.9.
In the same order, the values of `O=C(Nc1cccc(C(F)F)n1)c1cc2cn(CC3CCOC3)nc2cn1` (centres unmarked) [Example 8, N-(6-(difluoromethyl)pyridin-2-yl)-2-((tetrahydrofuran-3-yl)methyl)-2H-pyrazolo[3,4-c]pyridine-5-carboxamide Trifluoroacetate] are 275 nM and 0.6.
In the same order, the values of `Cc1cnc2c(NC(=O)c3cc4cn(C56COC(C)(C5)C6)nc4cc3OC(C)C)cnn2c1` [Example 94, 6-Isopropoxy-2-(1-methyl-2-oxabicyclo[2.1.1]hexan-4-yl)-N-(6-methylpyrazolo[1,5-a]pyrimidin-3-yl)-2H-indazole-5-carboxamide] are 1.3 nM and 1.4.
Taken in the same sequence, the figures for `CC(C)Oc1c(C(=O)Nc2cccc(C(F)F)n2)cc2cn(C3CCOCC3)nc2c1Cl` [Example 124, 7-Chloro-N-(6-(difluoromethyl)pyridin-2-yl)-6-isopropoxy-2-(tetrahydro-2H-pyran-4-yl)-2H-indazole-5-carboxamide Trifluoroacetate] were 20 nM and 1.1.
In the case of `CC(C)Oc1cc2nn(C34CCC(C)(C3)OC4)cc2cc1C(=O)Nc1cnn2cccnc12` (centres unmarked) [Example 98, 6-Isopropoxy-2-(1-methyl-2-oxabicyclo[2.2.1]heptan-4-yl)-N-(pyrazolo[1,5-a]pyrimidin-3-yl)-2H-indazole-5-carboxamide], the IC50 in data set [1] (setting [3]) is 0.5 nM. Besides, in data set [2], the efflux ratio at 120 min, 1 μM is 1.
Take `Cc1cnc2c(NC(=O)c3cc4cn(C56CCC(C)(C5)OC6)nc4cc3OC(C)C)cnn2c1` (centres unmarked) [Example 99, 6-Isopropoxy-2-(1-methyl-2-oxabicyclo[2.2.1]heptan-4-yl)-N-(6-methylpyrazolo[1,5-a]pyrimidin-3-yl)-2H-indazole-5-carboxamide trifluoroacetate]: the IC50 in data set [1] (setting [3]) was 0.3 nM. Besides, the efflux ratio at 120 min, 1 μM in data set [2] was found to be 1.2.
For the compound `CC(C)Oc1nc2nn(C[C@H]3CCOC3)cc2cc1C(=O)Nc1cnn2cccnc12` (single isomer, unassigned) [Example 118], the half-inhibitory concentration (IC50) in data set [1] (setting [4]) stood at 0.8 nM. Besides, the efflux ratio at 120 min, 1 μM in data set [2] came out at 3.1.
